{"source": "patent US20070265196A1", "about": "“Method of Modulating Pro-Inflammatory and Inflammatory Activity Mediated by C-Reactive Protein” (MEDVET SCIENCE PTY., LTD., priority 2004, published 2007)", "key": {"[1]": {"tested_on": "HUVEC expression of E-selectin, VCAM-1 and ICAM-1", "test": "Induction of adhesion molecule expression in HUVEC by the substance itself (flow cytometry)", "format": "cell-based, human", "details": "for effect of heating at 65° C. for 1 hour on activity (E-selectin induction): heated 65° C., serum free medium", "procedure": "(§1) Human umbilical vein endothelial cells (HUVEC) and bovine aortic endothelial cells (BAEC) were isolated and cultured as described previously (Wall et al (1978)). Cells were used at passages 2 to 3 for HUVEC and passages 3-10 for BAEC. For detection of adhesion molecules, HUVEC were incubated overnight in Opti-MEM serum free medium (Gibco, Invitrogen Corporation) in the presence or absence of HDL and then treated with recombinant human C-reactive protein (Calbiochem) for 5 hrs unless indicated otherwise. After the treatment, cells were washed with medium M199 and incubated with primary monoclonal antibodies against E-selectin, VCAM-1, ICAM-1 or isotype-matched nonrelevant control antibodies for 30 min as described previously (Gamble et al (1993)). Cells were then incubated with fluorescein isothiocyanate-conjugated secondary antibody for 30 min. The cells were then harvested by trypsinization and fixed in 2.5% formaldehyde (antibody binding prior to trypsinizing has been reported to prevent the partial hydrolyzation of the surface adhesion molecules (Grabner et al (2000))). The expression of cell-surface adhesion molecules was measured as fluorescence intensity by use of a Coulter Epics Profile XL flow cytometer. Unless stated otherwise, the results represent mean fluorescence of the positive population±SEM from one experiment and are representative at least three independent experiments. Differences between means were evaluated by Student's t-tests. ANOVA was used to identify statistical significance of multiple comparisons."}, "[2]": {"tested_on": "C-reactive protein-induced expression of E-selectin, VCAM-1 and ICAM-1", "test": "Inhibition of C-reactive protein-induced cell-surface adhesion molecule expression in HUVEC (flow cytometry)", "format": "cell-based, human", "details": "for effect on C-reactive protein-induced expression of adhesion molecules (E-selectin, ICAM-1, VCAM-1): 16 hrs preincubation in serum-free medium, then C-reactive protein 10 μg/ml for 5 hrs; for effect of antioxidant on PLPC-dependent inhibition of C-reactive protein-induced E-selectin expression: HUVEC preincubated 16 hrs with 35 μM PLPC in presence of the antioxidant", "procedure": "as §1\nAs described previously (Ashby et al (1998)) the lipoproteins were isolated from normal healthy adult donors by sequential ultracentrifugation in their appropriate density range: total HDL 1.07<d<1.21 and LDL 1.019<d<1.055 g/ml. The resulting preparations of lipoproteins were dialyzed against endotoxin-free PBS (pH 7.4) prior to use. Discoidal reconstituted HDL containing apoA-I and PLPC, were prepared by the cholate dialysis method described by Matz (1982). Small unilamellar vesicles (SUVs) containing either PLPC or 1-palmitoyl-2-oleoyl-sn-glycero-3-phosphocholine (POPC), in butylated hydroxytoluene (BHT) (molar ratio of PC to BHT, 10:1), were prepared in PBS precisely as described by Jonas (1986). Oxidation of SUV was produced by incubation with 5 μM CuSO4 in the absence of BHT for 48 hours at 37° C."}, "[3]": {"tested_on": "adherence of U937 cells to C-reactive protein-activated BAEC", "test": "Adherence of U937 cells to C-reactive protein-treated BAEC", "format": "cell-based, bovine", "details": "BAEC incubated with C-reactive protein for 24 hours", "procedure": "U937 cells (CRL 1593.2; ATCC) were colorimetrically labelled with 0.2 mg/ml 3-(4,5-dimethylthiazol-2-yl)-2,5-diphenyltetrazolium bromide (MTT; Promega) in normal culture medium for 30 min at 37° C. The cells were collected by low-speed centrifugation and resuspended at a density of 2×10^5 cells/ml in medium without FCS. BAECs were seeded into 24-well plates and treated as desired in triplicate. After the treatment, BAECs were washed twice with RPMI-1640 medium. The MTT-labelled U937 cell suspension (200 μl/well) was then added into the BAEC cultures and incubated for 30 min at 37° C. Non-adherent cells were removed by rinsing the plates three times with PBS, and the number of adherent cells was counted under microscopy at least 4 fields per well."}}, "note": "Entries after “also recorded” stand apart in the source; their conditions may differ."}
{"compound": "CCCCC/C=C\\C/C=C\\CCCCCCCC(=O)OC(COC(=O)CCCCCCCCCCCCCCC)COP(=O)([O-])OCC[N+](C)(C)C", "note": "(stereo not drawn) [PLPC]", "values": [{"measurement": "effect of the substance alone on adhesion molecule expression", "setting": "[1]; HUVEC", "result": "had no effect"}, {"measurement": "C-reactive protein-induced E-selectin expression, substance added simultaneously with C-reactive protein", "setting": "[2]; HUVEC, 35 μM, C-reactive protein 10 μg/ml 5 hrs, no pre-incubation", "result": "not"}, {"measurement": "inhibitory effect on C-reactive protein-induced adhesion molecule expression after 1-hour pre-incubation", "setting": "[2]; HUVEC, 1-hour pre-incubation", "result": "no inhibitory effect"}, {"measurement": "inhibitory effect on C-reactive protein-induced adhesion molecule expression when added simultaneously with C-reactive protein", "setting": "[2]; HUVEC, no pre-incubation", "result": "no inhibitory effect"}, {"measurement": "persistence of inhibitory effect when removed from the medium after 16-hour pre-incubation before C-reactive protein activation", "setting": "[2]; HUVEC, washout", "result": "did not persist"}]}
{"compound": "CCCCCCCC/C=C\\CCCCCCCC(=O)O[C@H](COC(=O)CCCCCCCCCCCCCCC)COP(=O)([O-])OCC[N+](C)(C)C", "note": "[POPC SUVs, 1-palmitoyl-2-oleoyl-sn-glycero-3-phosphocholine]", "values": [{"measurement": "effect on C-reactive protein-induced expression of adhesion molecules (E-selectin, ICAM-1, VCAM-1)", "setting": "[2]; HUVEC", "result": "no inhibitory effect"}, {"measurement": "effect of CuSO4-exposed phospholipid on C-reactive protein-induced adhesion molecule expression", "setting": "[2]; HUVEC, control exposed to CuSO4", "result": "did not affect"}]}
{"compound": "CC(Cc1ccc(O)c(O)c1)C(C)Cc1ccc(O)c(O)c1", "note": "(stereo not drawn) [nordihydroguaiaretic acid]", "values": [{"measurement": "effect of antioxidant on PLPC-dependent inhibition of C-reactive protein-induced E-selectin expression", "setting": "[2]", "result": "reversed in a dose-dependent manner"}, {"measurement": "effect of antioxidant on PLPC-dependent inhibition of C-reactive protein-induced E-selectin expression", "setting": "[2]; listed as NDGA", "result": "completely abolish"}]}
{"compound": "C[N+](C)(C)CCOP(=O)(O)O", "note": "[phosphorylcholine]", "values": [{"measurement": "effect on the C-reactive protein's activity", "setting": "[2]; up to 100 μM added to the medium", "result": "had no effect"}]}
{"compound": "CCCCCCCCCCC[C@@H](C[C@@H]1OC(=O)[C@H]1CCCCCC)OC(=O)[C@H](CC(C)C)NC=O", "note": "[tetrahydrolipstatin]", "values": [{"measurement": "effect of lipase inhibitor treatment of cells on the anti-inflammatory activity of PLPC", "setting": "[2]; HUVEC", "result": "not affected"}]}
{"compound": "Cc1c(C)c2c(c(C)c1O)CC[C@@](C)(CCC[C@H](C)CCC[C@H](C)CCCC(C)C)O2", "note": "[α-tocopherol]", "values": [{"measurement": "effect of the substance alone on adhesion molecule expression", "setting": "[1]; HUVEC", "result": "had no effect"}, {"measurement": "effect of antioxidant on PLPC-dependent inhibition of C-reactive protein-induced E-selectin expression", "setting": "[2]", "result": "reversed in a dose-dependent manner; also recorded: completely abolish"}]}
{"compound": "C-reactive protein: recombinant human C-reactive protein (Calbiochem), proinflammatory stimulus", "values": [{"measurement": "concentration at which dose-dependent activity reaches a maximum", "setting": "[1]; E-selectin expression, HUVEC stimulated 5 hrs", "result": "10 to 20", "unit": "µg/mL"}, {"measurement": "cell surface expression of E-selectin VCAM-1 and ICAM-1", "setting": "[1]; HUVEC treated with C-reactive protein (10 μg/ml, 5 hrs)", "result": "significant increase"}, {"measurement": "inflammatory effect in fresh serum-free medium", "setting": "[1]; HUVEC, fresh (unconditioned) serum-free medium", "result": "no inflammatory effect"}, {"measurement": "effect of heating at 65° C. for 1 hour on activity (E-selectin induction)", "setting": "[1]; HUVEC", "result": "completely eliminated"}, {"measurement": "increase in adhesion of U937 cells to BAEC", "setting": "[3]", "result": "more than 6 fold"}]}
{"compound": "Lipopolysaccharide [LPS]", "values": [{"measurement": "induction of adhesion molecule expression", "setting": "[1]; HUVEC, concentrations of up to 1 ng/ml", "result": "insufficient to induce"}, {"measurement": "effect of heating at 65° C. for 1 hour on activity (E-selectin induction)", "setting": "[1]; HUVEC", "result": "did not alter"}]}
{"compound": "lipid-free apoA-I: lipid-free apolipoprotein A-I, the protein component of rHDL", "values": [{"measurement": "effect on C-reactive protein-induced expression of adhesion molecules (E-selectin, ICAM-1, VCAM-1)", "setting": "[2]; HUVEC", "result": "had no effect"}]}
